Experimental findings from paper PMC9822396 (Molecules, 2022) are described below.

The target in data set [1] is T1, hMAO-A (Homo sapiens, UniProt P21397).
T1 construct: purchased Sigma-Aldrich
T1 sequence (P21397 1-527): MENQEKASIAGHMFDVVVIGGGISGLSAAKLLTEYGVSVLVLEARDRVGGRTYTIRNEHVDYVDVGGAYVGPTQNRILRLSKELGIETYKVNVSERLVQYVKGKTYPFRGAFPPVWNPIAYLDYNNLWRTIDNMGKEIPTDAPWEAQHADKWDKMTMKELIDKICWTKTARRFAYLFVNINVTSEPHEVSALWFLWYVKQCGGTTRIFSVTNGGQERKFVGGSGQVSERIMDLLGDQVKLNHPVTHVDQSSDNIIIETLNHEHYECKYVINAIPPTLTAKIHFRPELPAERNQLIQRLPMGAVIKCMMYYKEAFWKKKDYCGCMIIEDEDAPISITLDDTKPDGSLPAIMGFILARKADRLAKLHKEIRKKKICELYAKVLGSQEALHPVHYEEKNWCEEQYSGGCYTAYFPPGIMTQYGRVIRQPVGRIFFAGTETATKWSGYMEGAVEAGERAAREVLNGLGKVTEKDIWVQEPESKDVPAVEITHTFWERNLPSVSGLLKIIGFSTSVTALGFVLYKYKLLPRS
The experiment in a line: biochemical. The note with it: for remaining activity at 10 µM: read-out: Residual Activity at 10 µM (%) hMAO-A. As to the method: (§1) All other chemicals were of reagent grade.
hMAO-A and -B activities were determined using a continuous spectrophotometric method, as described previously. […] AChE and BChE activities were assayed as described by Ellman et al., with slight modification. Reactions were performed using AChE and BChE in the 0.5 mL reaction mixtures including 0.5 mM substrate (ATCI and BTCI, respectively) and color reagent (DTNB). […] Reaction rates are expressed as changes in absorbance per min.. Inhibitory activities of AChE and BChE were measured after preincubating enzyme with inhibitors for 15 min before adding DTNB and each substrate.
Inhibitory types and Ki values were determined using Lineweaver-Burk plots and secondary plots of their slopes, respectively.

Data set [2] concerns the target T2, hMAO-B (Homo sapiens, UniProt P27338).
T2 construct: purchased Sigma-Aldrich
T2 sequence (P27338 1-520): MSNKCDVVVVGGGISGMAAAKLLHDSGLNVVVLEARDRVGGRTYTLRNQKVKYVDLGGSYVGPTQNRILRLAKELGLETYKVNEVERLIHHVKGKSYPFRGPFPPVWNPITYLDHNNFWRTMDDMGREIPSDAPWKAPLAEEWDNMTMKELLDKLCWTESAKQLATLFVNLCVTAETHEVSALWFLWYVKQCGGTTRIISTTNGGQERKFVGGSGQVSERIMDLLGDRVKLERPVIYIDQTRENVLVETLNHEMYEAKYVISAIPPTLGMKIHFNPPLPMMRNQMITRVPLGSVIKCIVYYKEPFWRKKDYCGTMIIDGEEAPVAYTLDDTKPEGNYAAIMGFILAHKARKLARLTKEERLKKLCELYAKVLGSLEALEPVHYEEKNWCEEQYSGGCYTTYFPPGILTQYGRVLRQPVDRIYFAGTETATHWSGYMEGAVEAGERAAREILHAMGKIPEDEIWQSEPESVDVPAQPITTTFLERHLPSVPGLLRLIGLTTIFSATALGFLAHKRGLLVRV
The experiment in a line: biochemical. The note with it: for SI: hMAO-B selectivity: IC50 of hMAO-A divided by IC50 of hMAO-B; for remaining activity at 10 µM: read-out: Residual Activity at 10 µM (%) hMAO-B. In kind it is biochemical. The method, then: as §1
(§2) hMAO-A and -B activities were determined using a continuous spectrophotometric method, as described previously. […] AChE and BChE activities were assayed as described by Ellman et al., with slight modification. Reactions were performed using AChE and BChE in the 0.5 mL reaction mixtures including 0.5 mM substrate (ATCI and BTCI, respectively) and color reagent (DTNB). […] Reaction rates are expressed as changes in absorbance per min.. Inhibitory activities of AChE and BChE were measured after preincubating enzyme with inhibitors for 15 min before adding DTNB and each substrate. […]

Data set [3] addresses T3, AChE (Electrophorus electricus, UniProt O42275).
T3 construct: purchased Sigma-Aldrich
The experiment in a line: AChE inhibition (Ellman method). Type of data set: biochemical. The note with it: read-out: Residual Activity at 10 µM (%) AChE. As to the method:
as §1, §2

The target of data set [4] is T4, BChE (Equus caballus, UniProt P81908).
T4 construct: BChE from equine serum; purchased Sigma-Aldrich; host or cells: equine serum
The experiment in a line: BChE inhibition (Ellman method). Type of data set: biochemical, equine. The note with it: read-out: Residual Activity at 10 µM (%) BChE. The method, then: as §1, §2
Background: In Ellman's method for cholinesterases, released thiocholine reacts with DTNB.

The target in data set [5] is T5, BACE1 (Homo sapiens, UniProt P56817).
T5 construct: purchased Sigma-Aldrich
The experiment in a line: BACE1 inhibition (fluorescent activity detection kit). Type of data set: biochemical. The note with it: read-out: Residual Activity at 10 µM (%) BACE1.

For data set [6], the target named is T2, hMAO-B. The experiment in a line: Reversibility of hMAO-B inhibition by dialysis. In kind it is biochemical. The note with it: for Reversibility of hMAO-B inhibition: dialysis; for Relative activity dialyzed (AD), hMAO-B: inhibitor at ~2 times IC50, after dialysis; for Relative activity undialyzed (AU), hMAO-B: inhibitor at ~2 times IC50, before dialysis. The method, then: (§3) After preincubating compounds or reference inhibitors with hMAO-A and hMAO-B, residual activities for undialyzed and dialyzed samples were measured. Relative values for undialyzed (AU) and dialyzed (AD) activities were then calculated and compared with non-inhibitor treated controls. Reversibilities were determined by comparing the AU and AD values of inhibitors with those of references.

The target of data set [7] is T2, hMAO-B. The experiment in a line: Kinetics of hMAO-B inhibition (Lineweaver-Burk and secondary plots). Type of data set: biochemical. The note with it: for Inhibition type hMAO-B: Lineweaver-Burk plots; for Ki: secondary plots of Lineweaver-Burk slopes.
In data set [8] the test system is MDCK cells. The experiment in a line: Cytotoxicity, CCK-8 cell viability, MDCK. The note with it: normal cell line, up to 50 µM, 24 h. Type of data set: cell-based, canine. An excerpt: (§4) Dimethyl sulfoxide (DMSO) and 2-mercaptoethanol (2-ME) were obtained from Sigma Aldrich. Cell counting kit-8 (CCK-8) was obtained from Dojindo Laboratories (Kumamoto, Japan). Madin-Darby canine kidney (MDCK; KCLB 10034) cells, human acute promyelocytic leukemia (HL-60; KCLB 10240) cells, and human neuroblastoma cells (SH-SY5Y; KCLB 22266) were purchased from the Korean Cell Line Bank (KCLB, Seoul, Republic of Korea).
(§5) Passages were used between 10 and 30. Following trypsinization, MDCK (1 × 10^4), HL-60 (5 × 10^4), and SH-SY5Y (5 × 10^4) cells were seeded in 96-well plates and treated with 1, 3, 10, 30 and 50 µM of each inhibitor. The plates were then incubated for 24 h at 37 °C with 5% CO2, and cell viability was determined by the CCK-8 and by measuring the optical density at 450 nm using a microplate reader (Versa Max, Molecular Devices, Sunnyvale, CA, USA). The cell viability was expressed as % by comparing the absorbance of the sample to that of the control. Statistical differences between groups were analyzed by ANOVA using IBM SPSS statistics 27 and probability values (p-values) less than 0.05 were marked as significant values.

Data set [9] has as its system HL-60 cells. The experiment in a line: Cytotoxicity, CCK-8 cell viability, HL-60. In kind it is cell-based, human. To be noted: cancer cell line, up to 50 µM, 24 h.
From the text: as §4, §5

Data set [10] in a line: Cytotoxicity, CCK-8 cell viability, SH-SY5Y. Type of data set: cell-based, human. The note with it: human, 30 µM.
From the text: as §4, §5

The subject of data set [11] is SH-SY5Y cells. The experiment in a line: Cytotoxicity, CCK-8 cell viability, SH-SY5Y. In kind it is cell-based, human. The note with it: neuroblastoma, 24 h.
From the text: as §4, §5

Data set [12] concerns the target T1, hMAO-A. The experiment in a line: Reversibility of hMAO-A inhibition by dialysis. In kind it is biochemical. The method, then: as §3
The target in data set [13] is T1, hMAO-A. The experiment in a line: Kinetics of hMAO-A inhibition (Lineweaver-Burk and secondary plots). Type of data set: biochemical. The method, then: The kinetics of MAO-A inhibition by 13 was also investigated as above, except at 0.0075–0.12 mM of substrate concentrations. Inhibitory types and Ki values were determined using Lineweaver-Burk plots and secondary plots of their slopes, respectively.

The structures appear in SMILES notation. Values joined by “and” are separate entries in the source; they are usually repeats but may differ in a detail not shown here. Equal values may be shown once. “Also recorded” adds a separate entry of the source.

T3 sequence (O42275 24-633): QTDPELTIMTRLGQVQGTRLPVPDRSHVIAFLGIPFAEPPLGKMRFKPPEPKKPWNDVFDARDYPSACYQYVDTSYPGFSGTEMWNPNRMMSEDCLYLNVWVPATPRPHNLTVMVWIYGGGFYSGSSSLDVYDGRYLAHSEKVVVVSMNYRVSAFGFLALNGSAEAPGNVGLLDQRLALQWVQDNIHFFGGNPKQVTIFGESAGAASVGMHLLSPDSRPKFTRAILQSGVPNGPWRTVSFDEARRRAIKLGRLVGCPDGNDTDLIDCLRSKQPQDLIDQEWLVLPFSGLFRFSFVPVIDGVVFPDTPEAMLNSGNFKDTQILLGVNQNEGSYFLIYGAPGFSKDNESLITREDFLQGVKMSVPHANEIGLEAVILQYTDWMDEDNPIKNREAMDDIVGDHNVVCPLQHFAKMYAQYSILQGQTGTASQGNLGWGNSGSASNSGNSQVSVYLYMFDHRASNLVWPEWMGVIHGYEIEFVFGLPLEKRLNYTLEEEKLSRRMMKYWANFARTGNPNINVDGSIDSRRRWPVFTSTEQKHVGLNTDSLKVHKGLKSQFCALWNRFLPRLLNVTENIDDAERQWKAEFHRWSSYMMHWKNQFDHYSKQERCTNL
T4 sequence (P81908 whole entry): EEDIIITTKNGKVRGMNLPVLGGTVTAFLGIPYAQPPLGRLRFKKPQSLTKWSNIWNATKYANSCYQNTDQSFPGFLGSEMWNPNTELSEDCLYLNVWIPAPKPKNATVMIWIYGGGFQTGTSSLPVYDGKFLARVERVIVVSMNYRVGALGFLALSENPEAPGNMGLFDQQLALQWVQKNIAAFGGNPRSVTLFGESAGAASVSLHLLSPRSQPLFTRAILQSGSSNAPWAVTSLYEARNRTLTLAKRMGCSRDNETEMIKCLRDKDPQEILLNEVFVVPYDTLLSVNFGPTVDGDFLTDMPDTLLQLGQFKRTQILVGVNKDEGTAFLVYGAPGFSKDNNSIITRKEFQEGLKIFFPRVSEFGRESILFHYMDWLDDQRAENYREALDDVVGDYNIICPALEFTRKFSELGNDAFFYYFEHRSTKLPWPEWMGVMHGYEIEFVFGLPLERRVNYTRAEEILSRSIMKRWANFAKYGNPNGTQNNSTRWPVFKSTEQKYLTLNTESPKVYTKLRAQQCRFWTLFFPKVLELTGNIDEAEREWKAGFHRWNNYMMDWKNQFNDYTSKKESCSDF
T5 sequence (P56817 46-501): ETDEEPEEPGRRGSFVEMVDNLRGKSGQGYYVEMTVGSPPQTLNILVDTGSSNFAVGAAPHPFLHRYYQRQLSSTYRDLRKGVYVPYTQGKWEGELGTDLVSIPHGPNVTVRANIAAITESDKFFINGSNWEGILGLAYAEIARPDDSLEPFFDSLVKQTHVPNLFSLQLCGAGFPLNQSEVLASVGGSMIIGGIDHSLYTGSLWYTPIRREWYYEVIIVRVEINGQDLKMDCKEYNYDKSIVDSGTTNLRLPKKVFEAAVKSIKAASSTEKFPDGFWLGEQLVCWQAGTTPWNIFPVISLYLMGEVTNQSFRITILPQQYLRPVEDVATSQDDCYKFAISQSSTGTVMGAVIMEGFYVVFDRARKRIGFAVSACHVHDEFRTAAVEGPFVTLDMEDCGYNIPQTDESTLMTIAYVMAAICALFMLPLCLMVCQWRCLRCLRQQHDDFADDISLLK

Regarding `COc1ccc2c(c1)OC1c3ccc(O)cc3OCC21` (stereo not drawn) [Compound 8, 3-hydroxy-9-methoxypterocarpan], in data set [1], the IC50 (in general, the concentration that inhibits the measured activity by half) was 19900 ± 850 nM and the remaining activity at 10 µM stood at 64.18 ± 0.53%. In data set [2], the 50% inhibitory concentration (IC50) amounted to 450 ± 32 nM, the SI was found to be 44.2 and the remaining activity at 10 µM amounted to 4.17 ± 0.84%. In addition, the “times higher hMAO-B inhibitory activity than 13” value in [2] (3-OH of 8 versus 3-OCH3 of 13) amounted to 1.6 times. Moreover, in data set [2] (versus maackiain IC50 of ref 36), the “times higher hMAO-B inhibition than maackiain” value amounted to 1.5 times. In addition, the remaining activity at 10 µM in data set [3] is 80.6 ± 2.62%. The remaining activity at 10 µM in data set [4] is 98.4 ± 1%. The remaining activity at 10 µM in data set [5] is 111.4 ± 0.52%. Besides, in data set [6], the “Reversibility of hMAO-B inhibition” value is recorded as “reversible inhibitor”; the “Relative activity dialyzed (AD), hMAO-B” value came to 72.7%; the “Relative activity undialyzed (AU), hMAO-B” value is 29.8%. In [7], the “Inhibition type hMAO-B” value is recorded as “competitive inhibitor” and the affinity corresponds to a Ki of 197 ± 4 nM. The “Effect on viability of MDCK cells” value in [8] is “non-toxicity; also recorded: no effects on the viabilities”. For the same compound, in data set [9], the “Effect on viability of HL-60 cells” value is reported as “non-toxicity; also recorded: no effects on the viabilities”. Besides, the viability (usually the share of living cells, or the viability signal relative to a control) at 24 h, 30 µM in data set [10] (SH-SY5Y cells) came out at 74%. Further, the “Toxicity to SH-SY5Y cells” value in [11] is “moderate toxicity”.

For `COc1ccc2c(c1)O[C@H]1c3ccc(OC)cc3OC[C@@H]21` [Compound 13, 3,9-dimethoxypterocarpan], the half-inhibitory concentration (IC50) in data set [1] was 1490 ± 21 nM; in data set [2] it was 720 ± 28 nM. For the same compound, the remaining activity at 10 µM in data set [1] was 11.6 ± 2.6%; in data set [2], 4.05 ± 1.91%; in data set [3], 81 ± 2.44%; in [4], 88.5 ± 1.96%; in [5], 101.48 ± 0.01%. Also, in data set [2] (9-OCH3 of 13 versus 8,9-methylenedioxy of 12), the “times higher hMAO-B inhibitory activity than 12” value was determined as 4.7 times. The compound further showed an SI in data set [2] of 2.07. Further, in [12] (dialysis), the “Reversibility of hMAO-A inhibition” value is listed as “reversible inhibitor”. In data set [12] (inhibitor at ~2 times IC50, after dialysis), the “Relative activity dialyzed (AD), hMAO-A” value came out at 75.8%. The “Relative activity undialyzed (AU), hMAO-A” value in data set [12] (inhibitor at ~2 times IC50, before dialysis) came out at 25.4%. In addition, in [6], the “Reversibility of hMAO-B inhibition” value was “reversible inhibitor”. The “Relative activity dialyzed (AD), hMAO-B” value in data set [6] is 73.5%. In addition, in data set [6], the “Relative activity undialyzed (AU), hMAO-B” value was determined as 32.0%. In addition, the “Inhibition type hMAO-A” value in data set [13] (Lineweaver-Burk plots) is “competitive inhibitor”. Also, the Ki – broadly, a dissociation constant, usually derived from enzyme kinetics or from competition with a known ligand – in [13] (secondary plots of Lineweaver-Burk slopes) was 617 ± 23 nM; in data set [7] it was 210 nM and 212 nM. For the same compound, in [7], the “Inhibition type hMAO-B” value is “competitive inhibitor”. Moreover, the “Effect on viability of MDCK cells” value in data set [8] is reported as “non-toxicity; also recorded: no effects on the viabilities”. For the same compound, the “Effect on viability of HL-60 cells” value in [9] was “non-toxicity; also recorded: no effects on the viabilities”. Also, in data set [10] (SH-SY5Y neuroblastoma cells), the viability at 24 h, 30 µM is 71.1%. Besides, the “Toxicity to SH-SY5Y cells” value in [11] is “moderate toxicity”.
